# Laboratory results as given in PubChem BioAssay (NCI).
#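 48-hour exposure; five concentrations; linearly interpolated endpoints. GI50: concentration for 50% inhibition of growth. At the TGI there is no net growth.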
# How the values were obtained:
# Assay in all cases: NCI anticancer screen, dose series, 48 h
# [1] = tested on: RXF 393 renal
# [2] = tested on: KM12 colon
# [3] = tested on: UO-31 renal
# [4] = tested on: DU-145 prostate
# [5] = tested on: CAKI-1 renal
# [6] = tested on: UACC-257 melanoma
# [7] = tested on: HCT-15 colon
# [8] = tested on: SF-539 CNS
# [9] = tested on: MDA-MB-435
# [10] = tested on: MOLT-4 leukemia
# [11] = tested on: SK-MEL-28 melanoma
# [12] = tested on: T-47D breast
# [13] = tested on: MDA-MB-231 breast
# [14] = tested on: HCC-2998 colon
# [15] = tested on: NCI-H226 lung
# [16] = tested on: OVCAR-8 ovarian
# [17] = tested on: NCI/ADR-RES ovarian
# [18] = tested on: SF-295 CNS
# [19] = tested on: PC-3 prostate
# [20] = tested on: HT29 colon
# [21] = tested on: SNB-75 CNS
# [22] = tested on: SF-268 CNS
# [23] = tested on: OVCAR-5 ovarian
# [24] = tested on: IGROV1 ovarian
# [25] = tested on: MALME-3M melanoma
# [26] = tested on: A498 renal
# [27] = tested on: NCI-H23 lung
# [28] = tested on: HOP-92 NSCLC
# [29] = tested on: SN12C renal
# [30] = tested on: HS 578T breast
# [31] = tested on: BT-549 breast
# [32] = tested on: HL-60(TB) leukemia
# [33] = tested on: SK-OV-3 ovarian
# [34] = tested on: SW-620 colon
# [35] = tested on: ACHN renal
# [36] = tested on: 786-0 renal
# [37] = tested on: OVCAR-4 ovarian
# [38] = tested on: HCT-116 colon
# [39] = tested on: UACC-62 melanoma
# [40] = tested on: OVCAR-3 ovarian
# [41] = tested on: SK-MEL-5 melanoma
compound,measurement,setting,value
NCCOCCOCCNc1nc(-c2ccc(Cl)cc2)nc(N2CCN(c3ccccn3)CC2)n1,GI50,[1],2.28 µM
same,TGI,[1],5.76 µM
same,GI50,[2],1.84 µM
same,TGI,[2],3.5 µM
same,GI50,[3],2.07 µM
same,TGI,[3],5.02 µM
same,GI50,[4],2.17 µM
same,TGI,[4],4.51 µM
same,GI50,[5],2.01 µM
same,TGI,[5],5.24 µM
same,GI50,[6],1.87 µM
same,TGI,[6],3.55 µM
same,GI50,[7],1.87 µM
same,TGI,[7],3.85 µM
same,GI50,[8],2.41 µM
same,TGI,[8],5.18 µM
same,GI50,[9],1.78 µM
same,TGI,[9],3.49 µM
same,GI50,[10],1.99 µM
same,TGI,[10],3.85 µM
same,GI50,[11],1.74 µM
same,TGI,[11],3.23 µM
same,GI50,[12],3.09 µM
same,TGI,[12],9.94 µM
same,GI50,[13],2.55 µM
same,TGI,[13],6.01 µM
same,GI50,[14],1.75 µM
same,TGI,[14],3.29 µM
same,GI50,[15],13.7 µM
same,TGI,[15],39.9 µM
same,GI50,[16],4.06 µM
same,TGI,[16],30.6 µM
same,GI50,[17],3.66 µM
same,TGI,[17],16 µM
same,GI50,[18],2.35 µM
same,TGI,[18],6.46 µM
same,GI50,[19],1.89 µM
same,TGI,[19],3.92 µM
same,GI50,[20],1.85 µM
same,TGI,[20],3.78 µM
same,GI50,[21],2.32 µM
same,TGI,[21],7.45 µM
same,GI50,[22],3.24 µM
same,TGI,[22],12.9 µM
same,GI50,[23],2.32 µM
same,TGI,[23],5.11 µM
same,GI50,[24],2.81 µM
same,TGI,[24],7.04 µM
same,GI50,[25],2.18 µM
same,TGI,[25],4.18 µM
same,GI50,[26],1.33 µM
same,TGI,[26],7.71 µM
same,GI50,[27],1.86 µM
same,TGI,[27],3.83 µM
same,GI50,[28],2.36 µM
same,TGI,[28],7.57 µM
same,GI50,[29],6.17 µM
same,TGI,[29],20.8 µM
same,GI50,[30],1.92 µM
same,TGI,[30],4.6 µM
same,GI50,[31],4.48 µM
same,TGI,[31],21.2 µM
same,GI50,[32],2.12 µM
same,TGI,[32],4.15 µM
same,GI50,[33],2.67 µM
same,TGI,[33],6.28 µM
same,GI50,[34],1.75 µM
same,TGI,[34],3.35 µM
same,GI50,[35],2.48 µM
same,TGI,[35],6.43 µM
same,GI50,[36],1.83 µM
same,TGI,[36],3.61 µM
same,GI50,[37],2.78 µM
same,TGI,[37],10.5 µM
same,GI50,[38],1.75 µM
same,TGI,[38],3.22 µM
same,GI50,[39],1.99 µM
same,TGI,[39],3.91 µM
same,GI50,[40],2.74 µM
same,TGI,[40],6.76 µM
same,GI50,[41],1.71 µM
same,TGI,[41],3.19 µM
